Patent US8158186B2, “2-methylthioethyl-substituted heterocycles as feed additives” (Evonik Degussa GmbH, priority 2007, dated 2012)
Where two headings read alike, the source gives them in different places.

Experiments:
[1] = cited from earlier work
[2] = European Commission report, 25 Apr. 2003; cited from earlier work
[3] = published in WO 00/28835, ruminants

| SMILES | biological value [1, 3] | melting point [°C] | also measured |
| --- | --- | --- | --- |
| CSCCC(N)C(=O)OC(C)(C)C (racemic) [D,L-tert-butylmethionine, reference compound] | 80% |  |  |
| CSCCC(O)C(=O)OC(C)C (centres unmarked) [HMBi] | at least 50% |  | HMBi absorbed through the rumen wall [2]: approximately 50%; biological value ([1]; published in EP 1358805, HMBi applied to a porous carrier, compared with the at least 50% of WO 00/28835): comparable |
| CSCCC1OC(C)(C)NC1=O (centres unmarked) [compound 10, 2,2-dimethyl-5-(2-(methylthio)ethyl)oxazolidin-4-one] |  | 84 |  |
| CSCCC1OC(c2ccccc2)NC1=O (centres unmarked) [compound 12, 5-(2-(methylthio)ethyl)-2-phenyloxazolidin-4-one] |  | 130 |  |
| CCC1(C)NC(=O)C(CCSC)O1 (centres unmarked) [compound 13, 2-ethyl-2-methyl-5-(2-(methylthio)ethyl)oxazolidin-4-one] |  | 62 |  |
| CSCCC1OC2(CCCCC2)NC1=O (centres unmarked) [compound 14, 2-(2-(methylthio)ethyl)-1-oxa-4-azaspiro[4.5]decan-3-one] |  | 109 |  |
